Assay results: ChEMBL document CHEMBL1201862, “PubChem BioAssay data set” (2004)
The source made the active and inactive calls.

What was measured:
[1] = molecular target: Kallikrein-7 (Homo sapiens, UniProt P49862); assay: Fluorescence Intensity-based biochemical primary high throughput dose response assay to identify activators of kallikrein-7 (K7) zymogen.
[2] = molecular target: T1, Oxysterols receptor LXR-beta (Homo sapiens, UniProt P55055); assay type: functional, cell-based;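 also: Cell-based luminescence dose-response assay of agonist activity at LXR, run as a confirmatory counterscreen to a daf-12 agonist screen; HEK293 cells with Gal4-LXR fusion and GAL4-driven luciferase reporter; agonist potency from rising luciferase signal of a Gal4-LXR reporter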
T1 sequence (P55055 whole entry): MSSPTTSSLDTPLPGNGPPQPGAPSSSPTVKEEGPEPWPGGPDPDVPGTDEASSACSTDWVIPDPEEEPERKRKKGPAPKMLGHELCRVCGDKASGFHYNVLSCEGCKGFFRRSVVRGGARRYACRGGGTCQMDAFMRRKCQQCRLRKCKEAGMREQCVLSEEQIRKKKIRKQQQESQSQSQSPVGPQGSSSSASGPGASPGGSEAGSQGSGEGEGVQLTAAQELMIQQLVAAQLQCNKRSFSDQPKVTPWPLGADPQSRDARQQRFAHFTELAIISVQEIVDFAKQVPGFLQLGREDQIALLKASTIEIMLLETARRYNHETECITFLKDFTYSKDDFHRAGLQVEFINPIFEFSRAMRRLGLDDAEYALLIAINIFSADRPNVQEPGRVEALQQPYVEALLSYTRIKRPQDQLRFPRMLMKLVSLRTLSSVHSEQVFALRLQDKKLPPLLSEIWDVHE

[3] = cells
[4] = ADAM10 protease inhibitors, dose response, selectivity assay for ADAM17 exosite inhibitor project, biochemical, FRET peptide substrate, recombinant human ADAM10 (AID 743259);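 also: ADAM10 enzyme cleaving a FRET peptide substrate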
[5] = molecular target: Disintegrin and metalloproteinase domain-containing protein 17 (Homo sapiens, UniProt P78536); assay: exosite inhibitors of ADAM17, dose response, biochemical (AID 743260)
Sequence of Disintegrin and metalloproteinase domain-containing protein 17 (P78536 whole entry, the tested form may be a part): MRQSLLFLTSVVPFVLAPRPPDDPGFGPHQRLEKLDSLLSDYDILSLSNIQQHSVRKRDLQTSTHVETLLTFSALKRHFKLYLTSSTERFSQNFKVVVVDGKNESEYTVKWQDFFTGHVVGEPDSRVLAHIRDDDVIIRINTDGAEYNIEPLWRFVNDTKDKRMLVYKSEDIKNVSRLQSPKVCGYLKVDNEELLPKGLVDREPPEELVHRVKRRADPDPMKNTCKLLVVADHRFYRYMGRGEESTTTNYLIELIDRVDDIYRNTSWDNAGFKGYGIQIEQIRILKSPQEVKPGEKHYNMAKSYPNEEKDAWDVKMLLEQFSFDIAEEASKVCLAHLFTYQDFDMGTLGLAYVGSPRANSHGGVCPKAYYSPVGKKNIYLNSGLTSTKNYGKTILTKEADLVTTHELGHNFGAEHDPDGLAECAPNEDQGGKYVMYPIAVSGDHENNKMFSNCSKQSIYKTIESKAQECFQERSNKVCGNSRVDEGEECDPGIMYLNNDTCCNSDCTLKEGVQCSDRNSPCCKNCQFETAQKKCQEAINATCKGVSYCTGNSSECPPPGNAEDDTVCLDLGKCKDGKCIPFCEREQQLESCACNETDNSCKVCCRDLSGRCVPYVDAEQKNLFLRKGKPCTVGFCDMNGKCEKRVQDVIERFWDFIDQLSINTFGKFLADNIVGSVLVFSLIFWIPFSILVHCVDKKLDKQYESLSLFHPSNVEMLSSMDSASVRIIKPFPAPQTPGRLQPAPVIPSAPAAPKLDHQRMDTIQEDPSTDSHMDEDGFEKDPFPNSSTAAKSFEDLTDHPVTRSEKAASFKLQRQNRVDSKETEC

[6] = molecular target: Metabotropic glutamate receptor 5 (Rattus norvegicus, UniProt P31424); assay: Identification of a glycine sulfonamide based non-MPEP site positive allosteric potentiator (PAM) of mGlu5 (calcium_assay).; assay type: functional
Sequence of Metabotropic glutamate receptor 5 (P31424 whole entry): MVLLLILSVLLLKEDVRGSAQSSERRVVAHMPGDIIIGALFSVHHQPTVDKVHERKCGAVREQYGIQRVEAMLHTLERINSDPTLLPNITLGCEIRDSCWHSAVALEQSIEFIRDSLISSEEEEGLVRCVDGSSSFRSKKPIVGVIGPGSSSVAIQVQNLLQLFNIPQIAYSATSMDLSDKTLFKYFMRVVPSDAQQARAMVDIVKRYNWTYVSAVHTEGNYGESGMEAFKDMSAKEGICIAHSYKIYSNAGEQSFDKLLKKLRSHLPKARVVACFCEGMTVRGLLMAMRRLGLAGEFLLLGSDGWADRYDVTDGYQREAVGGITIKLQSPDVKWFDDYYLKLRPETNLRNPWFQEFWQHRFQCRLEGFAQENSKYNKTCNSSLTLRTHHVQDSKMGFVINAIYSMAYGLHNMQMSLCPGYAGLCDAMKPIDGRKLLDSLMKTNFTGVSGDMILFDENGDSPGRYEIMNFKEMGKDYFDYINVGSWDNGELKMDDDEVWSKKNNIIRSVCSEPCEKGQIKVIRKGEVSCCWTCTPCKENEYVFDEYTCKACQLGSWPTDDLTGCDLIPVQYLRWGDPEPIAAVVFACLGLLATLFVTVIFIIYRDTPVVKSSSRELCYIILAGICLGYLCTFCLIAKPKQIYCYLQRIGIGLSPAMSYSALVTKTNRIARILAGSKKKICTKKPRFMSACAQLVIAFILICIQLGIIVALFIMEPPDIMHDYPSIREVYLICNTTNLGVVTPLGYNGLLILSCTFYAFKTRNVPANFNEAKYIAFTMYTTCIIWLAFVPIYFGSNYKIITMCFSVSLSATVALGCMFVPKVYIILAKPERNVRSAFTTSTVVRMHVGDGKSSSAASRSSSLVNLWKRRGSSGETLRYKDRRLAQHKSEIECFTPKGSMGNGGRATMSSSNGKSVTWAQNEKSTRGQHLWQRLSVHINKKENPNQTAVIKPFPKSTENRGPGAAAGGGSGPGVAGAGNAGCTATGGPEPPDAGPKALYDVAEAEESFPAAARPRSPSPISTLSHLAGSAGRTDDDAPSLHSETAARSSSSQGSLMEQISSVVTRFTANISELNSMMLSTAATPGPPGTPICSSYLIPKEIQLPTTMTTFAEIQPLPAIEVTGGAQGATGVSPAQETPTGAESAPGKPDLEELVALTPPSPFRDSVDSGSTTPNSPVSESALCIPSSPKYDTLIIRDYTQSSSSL

[7] = molecular target: 1-phosphatidylinositol 4,5-bisphosphate phosphodiesterase beta-3 (Homo sapiens, UniProt Q01970); assay: Fluorescence-based biochemical high throughput dose response assay to identify inhibitors of phospholipase C isozymes (PLC-B3).
[8] = molecular target: 1-phosphatidylinositol 4,5-bisphosphate phosphodiesterase gamma-1 (Homo sapiens, UniProt P19174); assay: Counterscreen for inhibitors of phospholipase C isozymes (PLC-B3): Fluorescence-based biochemical high throughput dose response assay to identify inhibitors of phospholipase C isozymes (PLC-gamma1).
Sequence of 1-phosphatidylinositol 4,5-bisphosphate phosphodiesterase gamma-1 (P19174 whole entry, the tested form may be a part): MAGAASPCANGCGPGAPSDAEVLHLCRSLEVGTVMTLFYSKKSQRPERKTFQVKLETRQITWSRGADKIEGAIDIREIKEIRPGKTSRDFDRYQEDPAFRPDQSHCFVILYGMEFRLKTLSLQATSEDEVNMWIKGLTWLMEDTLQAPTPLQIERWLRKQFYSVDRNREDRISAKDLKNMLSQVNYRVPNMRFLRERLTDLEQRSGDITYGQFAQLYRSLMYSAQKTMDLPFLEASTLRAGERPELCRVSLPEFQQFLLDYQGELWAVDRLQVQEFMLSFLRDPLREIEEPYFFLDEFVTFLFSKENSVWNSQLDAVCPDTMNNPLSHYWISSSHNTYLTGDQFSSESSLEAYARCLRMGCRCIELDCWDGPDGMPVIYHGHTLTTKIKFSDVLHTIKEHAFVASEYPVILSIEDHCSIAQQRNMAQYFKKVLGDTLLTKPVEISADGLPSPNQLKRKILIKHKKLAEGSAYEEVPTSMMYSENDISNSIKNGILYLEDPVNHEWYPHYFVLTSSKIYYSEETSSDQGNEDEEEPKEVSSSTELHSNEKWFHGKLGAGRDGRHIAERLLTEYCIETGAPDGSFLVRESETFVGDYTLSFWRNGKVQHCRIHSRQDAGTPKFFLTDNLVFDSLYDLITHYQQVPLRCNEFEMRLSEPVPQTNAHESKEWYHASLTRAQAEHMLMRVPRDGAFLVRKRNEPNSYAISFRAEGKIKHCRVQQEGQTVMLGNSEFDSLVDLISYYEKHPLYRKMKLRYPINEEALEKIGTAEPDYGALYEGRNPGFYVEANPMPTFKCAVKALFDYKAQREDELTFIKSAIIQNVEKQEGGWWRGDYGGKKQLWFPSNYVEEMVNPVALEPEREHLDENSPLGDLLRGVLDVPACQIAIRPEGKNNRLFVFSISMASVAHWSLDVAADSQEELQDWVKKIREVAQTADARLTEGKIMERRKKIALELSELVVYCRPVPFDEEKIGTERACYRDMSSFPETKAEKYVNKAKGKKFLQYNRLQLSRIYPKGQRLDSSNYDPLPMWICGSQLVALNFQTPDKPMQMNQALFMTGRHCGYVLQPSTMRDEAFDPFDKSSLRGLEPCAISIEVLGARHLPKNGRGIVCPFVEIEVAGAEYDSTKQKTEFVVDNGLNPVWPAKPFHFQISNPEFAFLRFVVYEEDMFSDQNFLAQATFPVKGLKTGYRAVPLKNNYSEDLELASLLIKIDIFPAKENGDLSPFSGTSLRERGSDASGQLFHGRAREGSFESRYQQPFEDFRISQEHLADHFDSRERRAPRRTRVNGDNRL

[9] = molecular target: T2, Carboxy-terminal domain RNA polymerase II polypeptide A small phosphatase 1 (Homo sapiens, UniProt Q9GZU7); assay: inhibitors of CTDSP1, concentration-response testing, biochemical assay, absorbance-based, actives from ultra-high-throughput screening (AID 540297); assay type: functional
T2 sequence (Q9GZU7 whole entry): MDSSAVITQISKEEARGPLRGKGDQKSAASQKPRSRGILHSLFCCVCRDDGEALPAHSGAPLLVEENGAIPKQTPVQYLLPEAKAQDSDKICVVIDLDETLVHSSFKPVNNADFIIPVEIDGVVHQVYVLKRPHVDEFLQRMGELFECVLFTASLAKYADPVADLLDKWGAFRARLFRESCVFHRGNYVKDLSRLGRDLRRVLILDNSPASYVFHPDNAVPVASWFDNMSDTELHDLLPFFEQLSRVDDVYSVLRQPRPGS

[10] = cytotoxicity in HEK-293T cells, dose response, cytotoxicity control for TCR NF-kB inhibitor project, luminescence, T-cell screen hits (AID 489026); assay type: functional, cell-based;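 also: cells exposed to compound about 14 hours before the viability readout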
[11] = HEK293 cell cytotoxicity, dose response, cytotoxicity control, plate reader, cherry-picked samples (AID 743446); assay type: functional, cell-based
[12] = HepG2 cell cytotoxicity, dose response, cytotoxicity control for Shn3 inhibitor project, CellTiter-Glo, cherry-picked (AID 624134); assay type: functional, cell-based
[13] = reduction of Shn3 3'UTR firefly luciferase signal, dose response, Schnurri-3 inhibitor project, cell-based, Clone20 osteoblasts, cherry-pick, set 2 (AID 720490); assay type: functional;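 also: actives lower the luminescence signal as inhibitors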
[14] = LGR2 antagonists, dose response, cell-based, HEK293, CRE-luciferase reporter, cherry pick, set 2 (AID 743343); assay type: functional;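 also: transfected cells were stimulated with diluted bursicon conditioned medium after compound addition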
[15] = Shn3 3'UTR reporter inhibitors, dose response, cell-based, Clone20 osteoblasts, firefly luciferase, cherry-picked (AID 624132); assay type: functional;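 also: firefly luciferase luminescence from reporter carrying the Shn3 3'UTR in osteoblasts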
[16] = HepG2 cell cytotoxicity, dose response, cytotoxicity control, plate reader, cherry-pick, antagonist series (AID 743416); assay type: functional, cell-based
[17] = molecular target: T3, Heat shock factor protein 1 (Mus musculus, UniProt P38532); assay: inhibition of MG132-induced HSE-luciferase signal, confirmation, cell-based, NIH3T3, luminescence, dose retest (AID 2382); assay type: functional;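 also: NIH3T3 fibroblasts with HSF1-driven luciferase reporter stressed by proteasome inhibitor MG132; luminescence from HSF1-driven luciferase expression after 8 hours of MG132 stress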
T3 sequence (P38532 whole entry): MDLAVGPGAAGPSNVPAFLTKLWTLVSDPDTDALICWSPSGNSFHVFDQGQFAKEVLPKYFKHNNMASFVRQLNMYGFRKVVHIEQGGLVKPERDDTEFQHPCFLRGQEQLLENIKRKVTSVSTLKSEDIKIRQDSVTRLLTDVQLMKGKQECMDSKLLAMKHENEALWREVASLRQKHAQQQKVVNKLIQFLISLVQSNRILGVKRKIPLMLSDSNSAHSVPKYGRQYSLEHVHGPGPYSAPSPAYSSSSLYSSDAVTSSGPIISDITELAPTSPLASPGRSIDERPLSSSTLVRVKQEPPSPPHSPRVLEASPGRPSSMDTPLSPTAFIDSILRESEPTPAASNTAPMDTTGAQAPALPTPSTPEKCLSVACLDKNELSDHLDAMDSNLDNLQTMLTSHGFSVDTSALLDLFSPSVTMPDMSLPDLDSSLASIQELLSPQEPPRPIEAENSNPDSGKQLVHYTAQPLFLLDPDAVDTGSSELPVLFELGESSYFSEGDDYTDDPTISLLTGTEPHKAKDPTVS

[18] = MC4R antagonists, dose response, counter-screen for LGR2 antagonist project, cell-based, plate reader, cherry pick (AID 743444); assay type: functional;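 also: transfected HEK 293 cells stimulated with alpha-MSH peptide; potency of inhibitors of the alpha-MSH evoked signal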
[19] = molecular target: Paired box protein Pax-8 (Homo sapiens, UniProt Q06710); assay: inhibitors of PAX8-driven TPO luciferase reporter, dose response, RMG-I cells, cherry-pick (AID 687027); assay type: functional, cell-based;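 also: luciferase reporter driven by Pax8 target thyroperoxidase promoter measured by SteadyGlo luminescence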
Sequence of Paired box protein Pax-8 (Q06710 whole entry): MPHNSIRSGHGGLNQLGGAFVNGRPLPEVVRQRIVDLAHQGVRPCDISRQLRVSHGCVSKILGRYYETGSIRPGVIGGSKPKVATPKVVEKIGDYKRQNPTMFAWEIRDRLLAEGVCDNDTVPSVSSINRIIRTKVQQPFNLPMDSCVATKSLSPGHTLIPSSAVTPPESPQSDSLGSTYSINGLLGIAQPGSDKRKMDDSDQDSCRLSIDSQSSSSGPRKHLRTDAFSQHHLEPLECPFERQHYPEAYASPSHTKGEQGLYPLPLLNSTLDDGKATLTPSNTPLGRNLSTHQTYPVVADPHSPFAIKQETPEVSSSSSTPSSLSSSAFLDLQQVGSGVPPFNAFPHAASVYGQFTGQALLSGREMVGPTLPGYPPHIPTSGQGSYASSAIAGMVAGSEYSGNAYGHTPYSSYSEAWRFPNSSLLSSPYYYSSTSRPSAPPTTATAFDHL

[20] = molecular target: Potassium channel subfamily K member 3 (Homo sapiens, UniProt O14649); assay: TASK1 (KCNK3) potassium channel inhibitors, SAR follow-up, CHO cells, FluxOR thallium flux (AID 652212); assay type: functional
Sequence of Potassium channel subfamily K member 3 (Homo sapiens, UniProt O14649) (O14649 whole entry): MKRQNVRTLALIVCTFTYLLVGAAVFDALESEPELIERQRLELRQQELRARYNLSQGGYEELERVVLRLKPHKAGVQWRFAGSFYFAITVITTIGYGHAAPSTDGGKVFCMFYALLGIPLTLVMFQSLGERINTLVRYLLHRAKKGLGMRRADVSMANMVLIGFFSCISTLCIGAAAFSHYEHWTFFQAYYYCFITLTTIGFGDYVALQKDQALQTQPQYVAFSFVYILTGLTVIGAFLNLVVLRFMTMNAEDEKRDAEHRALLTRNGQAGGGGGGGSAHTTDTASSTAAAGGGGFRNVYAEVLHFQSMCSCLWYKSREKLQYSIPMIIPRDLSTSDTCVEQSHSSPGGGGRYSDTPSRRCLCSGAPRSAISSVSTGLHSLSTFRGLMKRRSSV

[21] = molecular target: T4, Potassium channel subfamily K member 9 (Homo sapiens, UniProt Q9NPC2); assay: TASK3 (KCNK9) channel inhibitors, thallium flux, SAR follow-up, selectivity assay for TASK1 inhibitor project, cell-based, FluxOR thallium flux, concentration-response (AID 652211); assay type: functional;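 also: potency is for inhibitors of the channel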
T4 sequence (Q9NPC2 whole entry, the tested form may be a part): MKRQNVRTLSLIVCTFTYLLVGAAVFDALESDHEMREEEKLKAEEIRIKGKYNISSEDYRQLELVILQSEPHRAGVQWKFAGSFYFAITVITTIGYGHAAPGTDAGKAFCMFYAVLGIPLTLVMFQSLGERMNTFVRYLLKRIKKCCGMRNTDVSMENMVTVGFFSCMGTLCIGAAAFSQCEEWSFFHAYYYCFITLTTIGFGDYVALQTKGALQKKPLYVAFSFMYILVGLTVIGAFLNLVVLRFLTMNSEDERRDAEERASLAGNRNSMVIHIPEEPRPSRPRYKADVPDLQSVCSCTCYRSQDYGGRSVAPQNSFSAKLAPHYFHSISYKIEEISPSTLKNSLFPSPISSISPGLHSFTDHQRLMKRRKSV

[22] = molecular target: Potassium channel subfamily K member 3 (Rattus norvegicus, UniProt O54912); assay: SAR analysis for the identification of selective inhibitors of the two-pore domain potassium channel TASK1(KCNK3):Automated Electrophysiology.; assay type: functional
[23] = molecular target: T4, Potassium channel subfamily K member 9; assay: KCNK9 (TASK3) current inhibition by patch clamp, SAR follow-up, selectivity assay for TASK1 (KCNK3) inhibitor project, cell-based, automated electrophysiology (AID 652210); assay type: functional
[24] = NIH/3T3 fibroblast cytotoxicity, dose response, cytotoxicity control, cell-based, plate reader, dry powder, set 2 (AID 652280); assay type: functional; conditions: NIH3T3
[25] = T. cruzi growth inhibition in host cells, dose response, cell-based, plate reader, dry powder, set 2 (AID 652275); assay type: functional
[26] = T. cruzi intracellular amastigote growth inhibition, dose response, imaging, CA-I/72 strain, bovine embryo skeletal muscle, dry powder (AID 651885); assay type: functional, cell-based
[27] = HEK293 cell cytotoxicity, dose response, cytotoxicity control, cherry-picks, set 5 (AID 1053117); assay type: functional, cell-based
[28] = HepG2 cell cytotoxicity, dose response, cytotoxicity control, cherry-picked samples (AID 1159577); assay type: functional, cell-based
[29] = HepG2 cell cytotoxicity, dose response, cytotoxicity control, cherry-picks, set 5 (AID 1053118); assay type: functional, cell-based
[30] = P. falciparum Dd2 growth inhibitors, dose response, SYBR Green, cherry-picked samples (AID 1159567); assay type: functional, cell-based
[31] = A549 cell cytotoxicity, dose response, cytotoxicity control, cherry-picks, 26 µM top dose (AID 1053119); assay type: functional, cell-based
[32] = cytotoxicity in HeLa cells, dose response, cytotoxicity control, cell-based, plate reader, dry powder (AID 651946); assay type: functional
[33] = Dose-response inhibition of insulin secretion in a rat insulinoma line at 5 mM glucose (AID 1117331); assay type: functional, cell-based; conditions: INS-1E
[34] = CellTiter-Glo luminescent dose response of DLD-1 viability loss (AID 1117352); assay type: functional
[35] = cytotoxicity toward Colo320 cells – cell-based, CellTiter-Glo luminescence, IC50, dose response (AID 1117334); assay type: functional; conditions: COLO 320
[36] = cytotoxicity toward HT-29 cells – cell-based, CellTiter-Glo luminescence, IC50, dose response (AID 1117330); assay type: functional
[37] = RKO cell viability reduction, dose response, CellTiter-Glo luminescence (AID 1117322); assay type: functional
[38] = SNU-C1 cell viability reduction, dose response, CellTiter-Glo luminescence (AID 1117323); assay type: functional, cell-based
[39] = Concentration-dependent survival of SW480 colon cancer line, luminescence detection with CellTiter-Glo, half-maximal inhibitory concentration (AID 1117338); assay type: functional
[40] = HCT116 cell viability decrease, GSK3B pretreatment – CellTiter-Glo, IC50, dose response (AID 1117339); assay type: functional; conditions: HCT-116
[41] = cytotoxicity toward HCT116 cells – cell-based, CellTiter-Glo luminescence, IC50, dose response (AID 1117332); assay type: functional; conditions: HCT-116
[42] = HeLa 4N DNA content increase, dose response, cell-based, IC50 (AID 1117351); assay type: functional
[43] = HeLa 2N DNA content increase, dose response, cell-based, IC50 (AID 1117349); assay type: functional

Sequence of Kallikrein-7 (P49862 whole entry, the tested form may be a part): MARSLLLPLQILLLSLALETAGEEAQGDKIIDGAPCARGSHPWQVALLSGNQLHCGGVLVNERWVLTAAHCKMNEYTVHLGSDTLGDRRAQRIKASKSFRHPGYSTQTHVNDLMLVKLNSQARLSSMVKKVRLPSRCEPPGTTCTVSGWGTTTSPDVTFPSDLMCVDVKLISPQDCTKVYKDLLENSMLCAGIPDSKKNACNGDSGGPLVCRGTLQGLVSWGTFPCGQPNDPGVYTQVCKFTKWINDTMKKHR

COc1ccc(C2Nc3ccccc3C(=O)N2NC(C)=O)c(OC)c1 (stereo not given)
EC50 [1]: 9.55 µM (active)

Cc1ccc(C2=Nc3ccccc3N=C(C(Cl)Cl)C2)cc1
EC50 [2]: > 67.5 µM (inactive) | EC50 [3]: > 67.5 µM (inactive)

Cc1ccccc1NC1=NC(=O)/C(=C/c2cccn2C)S1
IC50 [4]: > 69.5 µM (inactive) | IC50 [5]: > 69.5 µM (inactive)

O=S(=O)(c1ccc(F)cc1)N1CCCC(c2nc(-c3ccc(F)cc3)no2)C1 (stereo not given)
EC50 [6]: 4.53 µM

Cc1cccc(NC(=O)Cn2c(O)c(N=NC(=O)c3ccccc3O)c3ccccc32)c1
IC50 [7]: > 123 µM (inactive) | IC50 [8]: > 123 µM (inactive) | IC50 [9]: 1.99 µM (active)

Cc1nc(SCC(=O)Nc2nc3ccccc3s2)c(C#N)c(C)c1C
IC50 [10]: > 80 µM (inactive) | AC50 [11]: > 52 µM (inactive) | AC50 [12]: > 70 µM (inactive) | AC50 [13]: < 0.135 µM (active) | AC50 [14]: 0.0912 µM (active) | AC50 [15]: < 0.26 µM (active) | AC50 [16]: > 52 µM (inactive) | EC50 [17]: < 0.16 µM (active) | AC50 [18]: < 0.068 µM (active) | AC50 [19]: < 0.26 µM (active)

CCOc1ccccc1C(=O)Nc1cccc(NC(=O)C2CCCC2)c1
IC50 [20]: 0.108 µM (active) | IC50 [21]: 1.11 µM (active) | IC50 [22]: 0.03 µM (active) | IC50 [23]: 0.49 µM (active)

C[C@@H]1CN([C@@H](C)CO)C(=O)c2cc(-c3ccncc3)cnc2O[C@H]1CN(C)Cc1ccc(Oc2ccccc2)cc1
AC50 [24]: 15.3 µM (active) | AC50 [25]: 2.93 µM (active) | IC50 [26]: > 20 µM (inactive)

CO[C@H]1CN(C)C(=O)c2ccc(NC(=O)c3ccc(-c4ccccc4)cc3)cc2OC[C@@H](C)NC[C@H]1C
AC50 [27]: 20.5 µM (active) | AC50 [28]: 22 µM (active) | AC50 [29]: 15.5 µM (active) | AC50 [30]: 6.23 µM (active) | AC50 [31]: 26.2 µM (active)

c1ccc(-c2nnc(SCc3cscn3)o2)cc1
AC50 [32]: > 52 µM (inactive)

CCCCN(CCCC)C(C(N)=O)c1ccc(OC)cc1 (stereo not given) [AMBUCETAMIDE]
IC50 [33]: > 33.3 µM (inactive)

CCOC(=O)c1ccccc1C(=O)OCC [DIETHYL PHTHALATE]
IC50 [34]: > 20 µM (inactive) | IC50 [35]: > 20 µM (inactive) | IC50 [36]: > 20 µM (inactive) | IC50 [37]: > 20 µM (inactive) | IC50 [38]: > 20 µM (inactive) | IC50 [39]: > 20 µM (inactive) | IC50 [40]: > 20 µM (inactive) | IC50 [41]: > 20 µM (inactive)

NCCCC[C@H](N[C@@H](CCc1ccccc1)C(=O)O)C(=O)N1CCC[C@H]1C(=O)O [LISINOPRIL]
IC50 [42]: > 10 µM (inactive) | IC50 [34]: 2.24 µM (active) | IC50 [35]: > 20 µM (inactive) | IC50 [36]: > 6.67 µM (inactive) | IC50 [37]: 8.88 µM (inactive) | IC50 [38]: 2.53 µM (active) | IC50 [39]: 4.03 µM (active) | IC50 [43]: > 10 µM (inactive) | IC50 [41]: 3.39 µM (active)
